Experimental data taken from ChEMBL document CHEMBL1142814, “Synthesis and preliminary biological evaluation of new anti-tubulin agents containing different benzoheterocycles” (Bioorg Med Chem Lett, 2005).

Experiments:
[1] = system: L1210; assay: Concentration required to inhibit murine leukemia L1210 cell line proliferation; format: functional, cell-based; conditions: Mus musculus
[2] = system: CCRF-CEM; assay: Concentration required to inhibit human T-lymphoblast CEM cell line proliferation; format: functional, cell-based
[3] = system: FM3A; assay: Concentration required to inhibit murine mammary carcinoma FM3A cell line proliferation; format: functional, cell-based; conditions: Mus musculus
[4] = system: MOLT-4; assay: Concentration required to inhibit human T-lymphoblast Molt4/C8 cell line proliferation; format: functional, cell-based
[5] = biological target: Tubulin beta chain (Bos taurus); assay: Concentration required to inhibit tubulin polymerization at 10 uM
[6] = biological target: Tubulin beta chain (Bos taurus) (UniProt Q6B856); assay: Inhibition of 1 uM [3H]colchicine binding to tubulin at 5 uM
Chain of Tubulin beta chain (Bos taurus) (UniProt Q6B856) (Q6B856 whole entry): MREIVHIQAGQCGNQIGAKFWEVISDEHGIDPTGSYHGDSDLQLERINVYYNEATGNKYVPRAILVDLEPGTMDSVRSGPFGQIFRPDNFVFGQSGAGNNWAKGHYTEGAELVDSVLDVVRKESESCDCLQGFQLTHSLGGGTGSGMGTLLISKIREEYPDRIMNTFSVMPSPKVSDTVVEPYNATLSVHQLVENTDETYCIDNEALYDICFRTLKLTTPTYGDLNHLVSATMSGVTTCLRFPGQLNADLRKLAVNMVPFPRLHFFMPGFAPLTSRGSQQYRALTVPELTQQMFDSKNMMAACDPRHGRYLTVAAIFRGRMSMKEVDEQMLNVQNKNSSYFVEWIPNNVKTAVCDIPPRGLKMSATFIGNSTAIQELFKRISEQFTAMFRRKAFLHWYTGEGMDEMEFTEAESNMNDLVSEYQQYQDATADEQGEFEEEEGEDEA

[7] = biological target: Tubulin beta chain (Bos taurus) (UniProt Q6B856); assay: Inhibition of [3H]colchicine binding to 1 uM beta-tubulin at 2 uM

Row | SMILES | IC50 [1] [nM] | IC50 [2] [nM] | IC50 [3] [nM] | IC50 [4] [nM] | IC50 [5] [nM] | inhibition [6] [%] | inhibition [7] [%]
1 | COc1cc(C(=O)c2[nH]c3ccccc3c2N)cc(OC)c1OC | > 10000 | > 10000 | > 10000 | > 10000 | – | – | –
2 | COc1cc(C(=O)c2sc3ccccc3c2N)cc(OC)c1OC | 350 | 310 | 1800 | 290 | 4200 | 39 | –
3 | COc1ccc(C(=O)c2c(N)sc3ccccc23)cc1OC | 3700 | 1700 | 4700 | 1700 | – | – | –
4 | COc1cc(C(=O)c2oc3ccccc3c2N)cc(OC)c1OC | > 10000 | > 10000 | > 10000 | > 10000 | – | – | –
5 | COc1ccc(C(=O)c2c(N)sc3ccccc23)cc1 | > 10000 | > 10000 | > 10000 | 9200 | – | – | –
6 | COc1cc(C(=O)c2c(N)sc3c2CCCC3)cc(OC)c1OC | 2240 | 2150 | 5680 | 1580 | > 40000 | 3 | –
7 | COc1cc(C(=O)c2sc3cc(C)ccc3c2N)cc(OC)c1OC | 58 | 24 | 71 | 34 | 1300 | 88 | 77
8 | COc1cc(C(=O)c2c(N)sc3ccccc23)cc(OC)c1OC | – | – | – | 73 | 3100 | 57 | –
